pEC50: −log10 of the molar value.
What was measured:
[1] = target: T1, fibroblast growth factor receptor (FGFR1) (Homo sapiens, UniProt P11362); assay: FGFR1 PathHunter cell-based assay (U2OS-FGFR1)
T1 construct: host or cells: U2OS (human osteosarcoma)
Text: The human osteosarcoma cell lines U2OS-TrkA/p75, U2OS-TrkB/p75, U2OS-TrkC/p75, U2OS-ratTrkA/p75, U2OS-FGFR1 (fibroblast growth factor receptor 1) as well as the human embryonic kidney cell line HEK293-IGF1R (insulin-like growth factor 1 receptor) from DiscoverX, Birmingham, United Kingdom, were used in the in vitro experiments. Eagle’s minimum essential medium (EMEM) ATCC #30-2003 from LGC Standards AB, Borås, Sweden; Leibovitz’s L15 medium, RPMI1640, fetal bovine serum, horse serum, penicillin/streptomycin, and Hoechst dye purchased from Invitrogen, Gothenburg, Sweden, were also used. Black poly-D-lysine coated 384-well plates (Viewplate) were purchased from PerkinElmer, Upplands Väsby, Sweden, and white 384-well assay plates(3570) were purchased from Corning, Amsterdam, Netherlands. […] Recombinant intracellular domain (ICD) of TrkA (08-186) and single site biotinylated activated (08-486-20N) or non-activated TrkA (08-486-23N) were obtained from Carna Biosciences, Odense, Denmark. […]
U2OS cells were maintained subconfluent in EMEM supplemented with 10% FBS and penicillin/streptomycin/hygromycin and G418. […] The functional (complemented) β-gal will hydrolyze a substrate to generate a luminescence signal. The generated luminescence was read using an EnVision plate reader from PerkinElmer, Upplands Väsby, Sweden, or an ID5 plate reader from Molecular Devices, Berkshire, RG41 5TS UK. […]

Wistar rats = assay: Novel object recognition; assay type: in vivo, rat; conditions: 1 mg/kg
Procedure: The novel object recognition model was conducted by Suven Life Sciences Ltd. (Hyderabad, India) using male Wistar rats (n = 12/group). This study was performed in compliance with the requirements and in-house animal care and usage policy of the Institutional Animal Ethics Committee (IAEC). The experiment was conducted over a 5-day period. For the first 3 days, ACD855 or vehicle were administered to the animals. On Day 4, the rats were acclimatized to their respective arenas for 20 min and then returned to their home cages for the administration of ACD855 or vehicle (1 h post habituation phase). On Day 5, the rats were administered vehicle or ACD855 1 h prior to trial, donepezil (1 mg/kg) was injected 30 min prior to trial, and scopolamine (1 mg/kg) was injected 20 min prior to trial. 20 min after scopolamine administration, the rats were subjected to the familiarization phase. The experiment was performed as described by Lueptow. The discriminative index for the drug-treated groups was compared to that of the vehicle group by use of the Kruskal–Wallis test. The discriminative index is the ratio of time spent exploring the novel object divided by the sum of the time spent exploring the novel object and a familiar object in the choice trial.

T1 sequence (P11362 22-822): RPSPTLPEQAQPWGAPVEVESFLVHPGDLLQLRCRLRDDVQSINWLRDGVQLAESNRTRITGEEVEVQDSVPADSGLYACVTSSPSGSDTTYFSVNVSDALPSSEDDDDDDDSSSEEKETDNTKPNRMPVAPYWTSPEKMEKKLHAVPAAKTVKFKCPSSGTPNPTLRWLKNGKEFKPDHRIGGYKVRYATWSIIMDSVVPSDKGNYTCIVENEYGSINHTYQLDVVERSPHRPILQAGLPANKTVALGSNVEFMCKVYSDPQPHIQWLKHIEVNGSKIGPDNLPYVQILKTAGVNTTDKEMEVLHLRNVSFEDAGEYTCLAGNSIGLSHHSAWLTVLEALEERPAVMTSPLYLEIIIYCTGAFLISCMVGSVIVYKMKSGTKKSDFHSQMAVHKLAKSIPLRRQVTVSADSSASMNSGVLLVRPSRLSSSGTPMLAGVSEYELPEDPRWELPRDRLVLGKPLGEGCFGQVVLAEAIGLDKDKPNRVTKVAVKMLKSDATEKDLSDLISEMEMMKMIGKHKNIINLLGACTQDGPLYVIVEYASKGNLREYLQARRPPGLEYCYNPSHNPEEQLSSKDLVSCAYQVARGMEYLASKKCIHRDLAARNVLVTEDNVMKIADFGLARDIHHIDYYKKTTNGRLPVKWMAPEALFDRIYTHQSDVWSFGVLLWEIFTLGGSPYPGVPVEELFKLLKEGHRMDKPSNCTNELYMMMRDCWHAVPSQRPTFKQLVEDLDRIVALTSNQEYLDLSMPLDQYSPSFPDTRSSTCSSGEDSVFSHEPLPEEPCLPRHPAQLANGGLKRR

In the case of `Cc1cc(-n2c(=O)[nH]c(=O)n(C)c2=O)ccc1Oc1ccc(S(=O)(=O)C(F)(F)F)cc1` [ACD855, Toltrazuril-sulfone], the pEC50 [1] was 6.10, the “FGFR1 Effect (efficacy)” value [1] was 44% and the “time with novel object vs familiar object after scopolamine” value (Wistar rats) was “spent significantly more time with the novel object”.

— PMC8391421, “Identification of Novel Positive Allosteric Modulators of Neurotrophin Receptors for the Treatment of Cognitive Dysfunction” (Cells, 2021)
